{
  "source": "patent US20240327459A1",
  "about": "“PEPTIDE FRAGMENTS FOR TREATMENT OF DIABETES” (Follicum AB, priority 2018, published 2024)",
  "key": {"[1]": {"system": "INS-1 β-cells", "test": "Insulin secretion from INS-1 cells, insulin ELISA (Examples 8-11, 20)", "assay_type": "cell-based, rat", "description": "Materials and methods: Rat INS-1 β-cells (passages 60-70) were cultured at 37° C. and 5% CO2 in cRPMI media (RPMI 1640 supplemented with 10% fetal bovine serum, 50 IU/mL penicillin, 50 mg/L streptomycin, 10 mM HEPES, 2 mM L-glutamine, 1 mM sodium pyruvate, and 50 μM beta-mercaptoethanol) unless otherwise stated. INS-1 cells were seeded in 96-well plates (2×10^3 cells/well) in cRPMI medium and following overnight incubation, the cells were washed in PBS before pre-incubation for 120 min at 37° C. in Krebs-Ringer bicarbonate buffer, pH 7.4, supplemented with 10 mM HEPES, 0.1% bovine serum albumin and 2.8 mM glucose. Following pre-incubation, the buffer was exchanged with fresh Krebs-Ringer buffer as described above and supplemented with specific glucose concentrations and peptides for the individual experiments as described below. Immediately after 60 minutes incubation at 37° C., an aliquot of the buffer was removed and frozen for subsequent insulin ELIZA assay.\nInsulin release from INS-1 cells were measured following exposure to increasing concentrations of FOL-014 and compared with the stimulatory effect of GLP-1 and untreated control during high glucose concentration (16.7 mM). […] At 6 nM or higher, FOL-014 triggered insulin release within the same range as 100 nM GLP-1. At concentrations ranging from 0.6-60 nM, insulin secretion increased in a linear fashion in relation to increasing FOL-014 concentrations.\nInsulin release from INS-1 cells was measured following exposure to 60 nM FOL-014 at increasing concentrations of glucose. In untreated control samples, elevated glucose concentrations increased the insulin secretion at 11.1 mM glucose or higher. […] (FIG. 6).\nInsulin secretion from INS-1 cells was measured following exposure to FOL-005, FOL-014, GLP-1 or combinations of those, expressed as percentage of untreated control. […] The experiments were performed in the presence of 16.7 mM glucose (FIG. 7).\nNovel peptide analogues, derived from either FOL-005 or FOL-014 were tested concerning their ability to induce insulin secretion in two separate INS-1 cell lines in the presence of 16.7 mM glucose. FOL-005, FOL-014 and GLP-1 as well as a high glucose (16.7 mM) and a low glucose (2.8 mM) control (not shown) was included in each experiment and the peptide concentration was 100 nM. In order to correct for the variance between experiments, all values were normalized to, and expressed as percentage of the average value of the high glucose control in the individual experiments. The analogues were subsequently ranked according to performance (FIGS. 11A and 11B).\nInsulin secretion from INS-1 cells was measured following exposure to FOL-056, GLP-1 or a combination of those, expressed as percentage of untreated control. […] The experiments were performed in the presence of 16.7 mM glucose (FIG. 15)."}, "[2]": {"system": "INS-1E cells", "test": "Insulin secretion from INS-1E cells (Example 18)", "assay_type": "cell-based, rat", "settings": "100 nM peptide, high (16.7 mM) glucose buffer, 60 min, vs un-supplemented buffer", "description": "To investigate the stimulatory effect of FOL-056 on insulin secretion we used INS-1E cells. The cells were seeded overnight and washed with PBS before pre-incubation for 60 min at 37° C. in Krebs-Ringer bicarbonate buffer (KRB), pH 7.4, supplemented with 10 mM HEPES, 0.1% bovine serum albumin. Following pre-incubation, the buffer was discarded and the INS-1E cells were incubated in fresh KRB buffer supplemented with 10 mM HEPES, 0.1% bovine serum albumin with or without peptide FOL-056. For comparative purposes cells treated with FOL-014 was included. Following 60 min incubation at 37.C, the buffer was removed and frozen for subsequent insulin assay."}, "[3]": {"system": "human pancreatic β-cell line 1.2B4", "test": "Insulin secretion from 1.2B4 human β-cells", "assay_type": "cell-based", "settings": "100 nM peptide, 16.7 mM glucose, 60 minutes", "description": "In order to test the effect of FOL-014 and FOL-056 in human cells, the human pancreatic β-cell line 1.2B4 were cultured at 37° C. and 5% CO2 in RPMI 1640 supplemented with 10% fetal bovine serum, 50 IU/mL penicillin, 50 mg/L streptomycin, 1 mM L-glutamine. 1.2B4 cells were seeded in 24-well plates in RPMI medium and following overnight incubation, the medium was removed before pre-incubation for 40 min at 37° C. in Krebs-Ringer bicarbonate buffer, pH 7.4, supplemented with 10 mM HEPES, 0.1% bovine serum albumin and 1.0 mM glucose. Following pre-incubation, the buffer was exchanged with fresh Krebs-Ringer buffer as described above and supplemented with specific glucose concentrations, 1 mM or 16.7 mM. FOL-014, FOL-056 or Liraglutide was added at a concentration of 100 nM in the presence of 16.7 mM glucose. Immediately after 60 minutes incubation at 37° C., an aliquot of the buffer was removed and frozen for subsequent insulin ELISA assay. (FIG. 18)"}, "[4]": {"system": "INS-1 cells", "test": "Proliferation of INS-1 cells ([methyl-3H] thymidine incorporation)", "assay_type": "cell-based, rat", "settings": "wells coated with peptide and blocked with BSA, vs BSA coated control wells", "description": "To investigate if FOL-005 and FOL-014 could induce proliferation of β-cells we used INS-1 cells. Rat INS-1 cells were seeded in 96-well plates in RPMI medium with supplement and after 2 hours the medium was changed to RPMI without supplement. During the proliferation experiment the cells were incubated at different test conditions (FOL-005, FOL-014, coated or in solution, 48 h incubation) and during the last 20 hours of culture period the cells were pulsed with 1 μ Ci/well of [methyl-3H] thymidine. The cells were then harvested onto glass fiber filters using a FilterMate harvester. The filters were air dried, and the bound radioactivity was measured using a liquid scintillation counter. To study whether FOL-005 influenced β-cell proliferation, INS-1 cells were treated with increasing amounts of soluble FOL-005 (0.06-6 μM) during 48 hours and proliferation was measured with radiolabeled thymidine incorporation into newly synthesized DNA."}},
  "note": "Entries after “also recorded” stand apart in the source; their conditions may differ.",
  "data": [
    {"sequence": "KPLAEIDSIELSYGIK (MISC_FEATURE - peptide, FOL-014)", "values": [
      {"measurement": "insulin secretion at increasing glucose concentrations", "setting": "[1]; 60 nM peptide, glucose 5.5 mM or higher, vs untreated control cells", "value": "increased significantly in a glucose dependent fashion already from 5.5 mM glucose; also recorded: significantly higher"},
      {"measurement": "concentration range in which insulin secretion increased in a linear fashion", "setting": "[1]; 16.7 mM glucose", "value": "0.6 to 60", "unit": "nM"},
      {"measurement": "concentration triggering insulin release within the same range as 100 nM GLP-1", "setting": "[1]; 16.7 mM glucose", "value": "≥ 6", "unit": "nM"},
      {"measurement": "insulin release", "setting": "[1]; all concentrations tested, 16.7 mM glucose, vs untreated control", "value": "elicited significantly higher insulin release as compared with the untreated control; also recorded: significant increase in insulin secretion for all concentrations tested"},
      {"measurement": "insulin secretion", "setting": "[1]; concentrations ≥600 nM, 16.7 mM glucose", "value": "did not increase the insulin secretion; also recorded: less pronounced effect on insulin secretion"},
      {"measurement": "insulin secretion", "setting": "[2]", "value": "resulted in a significant increase in insulin secretion"},
      {"measurement": "insulin secretion", "setting": "[3]", "value": "increase the insulin secretion capacity in 1.2B4 human β-cells; also recorded: significantly increased the insulin secretion as compared with cells treated with an un-supplemented high glucose buffer"},
      {"measurement": "proliferation of INS-1 cells", "setting": "[4]", "value": "stimulated proliferation compared to control; also recorded: induced more proliferation compared to only BSA coated wells"}
    ]}
  ]
}
